Assay results taken from US10494610B2, “Three dimensional matrix for cancer stem cells” (UNIVERSITY OF SOUTH CAROLINA, priority 2013, dated 2019).
No end group written: not given here.

Legend:
[1] = test system: 4T1 cells; assay: Flow cytometry of CD44+/CD24- cells isolated from the gel; type: cell-based, mouse; details: 4T1, 9 days after encapsulation in 5 kPa gel with or without conjugated peptide (about 6% without gel)
Description: Cells encapsulated in the gel were fixed with 4% paraformaldehyde for 30 min followed by washing with PBS. Next, the gel was incubated in oxidative degradation solution (0.1M CoCl in 20% hydrogen peroxide). After the gel was degraded, cells were washed three times with cold PBS containing 5% BSA. MCF7 cells were incubated with phycoerythrin (PE) mouse anti-human CD24 and fluorescein isothiocyanate (FITC) mouse anti-human CD44 (BD Biosciences, Franklin Lakes, N.J.), and 4T1 cells were incubated with PE-anti-mouse CD24 and FITC-anti-mouse CD44 (eBioscience, San Diego, Calif.) in 100 μl PBS with 5% BSA for 45 min on ice in the dark. Cells were then washed with cold PBS with 5% BSA three times and analyzed by a flow cytometer (FC500, Beckman Coulter, Brea, Calif.). Flow cytometry was done multiple times on each sample to ascertain reproducibility of the results.

[2] = test system: 4T1 cells; assay: RT-qPCR mRNA expression of CSC related markers in encapsulated cells; type: cell-based, mouse; details: for EGFR mRNA marker expression: 4T1 in peptide-conjugated gels
Description: Total cellular RNA of the gel samples was isolated using TRIzol (Invitrogen). 250 ng of the extracted purified RNA was reverse transcribed to cDNA by SuperScript II Reverse Transcriptase (Invitrogen) with the random primers. The obtained cDNA was subjected to real time quantitative polymerase chain reaction (RT-qPCR) amplification with appropriate gene specific primers. RT-qPCR was performed to analyze the differential expression of CSC markers CD44 (4T1 and MCF7), CD24 (4T1), ABCG2 (4T1 and MCF7), and SCA1 (4T1) genes with SYBR green RealMasterMix (Eppendorf, Hamburg, Germany) using Bio-Rad iCycler PCR system (Bio-Rad, Hercules, Calif.). The expression level of GAPDH gene was used as an internal control. The primers for real time PCR were designed by Primer 3 software. The following forward and reverse primers synthesized by Integrated DNA technologies (Coralville, Iowa) were used: mouse GAPDH: forward 5′-CATGGCCTTCCGTGTTCCTA-3′ (SEQ ID NO: 1) and reverse 5′-CCTGCTTCACCACCTTCTTGA-3′ (SEQ ID NO: 2); mouse CD44: forward 5′-GAATGTAACCTGCCGCTACG-3′ (SEQ ID NO: 3) and reverse 5′-GGA GGT GTT GGA CGT GAC-3′ (SEQ ID NO: 4); mouse CD24: forward 5′-CTTCTGGCACTGCTCCTACC-3′ (SEQ ID NO: 5) and reverse 5′-GAGAGAGAGCCAGGAGACCA-3′ (SEQ ID NO: 6); mouse ABCG2: forward 5′-AGCAGCAAGGAAAGATCCAA-3′ (SEQ ID NO: 7) and reverse 5′-GGAATACCGAGGCTGATGAA-3′ (SEQ ID NO: 8); mouse SCA1: forward 5′-TGG ACA CTT CTC ACA CTA-3′ (SEQ ID NO: 9) and reverse 5′-CAGAGCAAGAGGGTCTGCAGGAG-3′ (SEQ ID NO: 10); human GAPDH forward 5′-GAGTCAACGGATTTGGTCGT-3′ (SEQ ID NO: 11) and reverse 5′-TTGATTTTGGAGGGATCTCG-3′ (SEQ ID NO: 12); human CD44 forward 5′-GGCTTTCAATAGCACCTTGC-3′ (SEQ ID NO: 13) and reverse 5′-ACACCCCTGTGTTGTTTGCT-3′ (SEQ ID NO: 14); human ABCG2 forward 5′-CACCTTATTGGCCTCAGGAA-3′ (SEQ ID NO: 15) and reverse 5′-CCTGCTTGGAAGGCTCTATG-3′ (SEQ ID NO: 16). The relative gene expression levels were quantified by the 2^-ddCT method as described. The relative gene expressions were expressed as fold difference compared with that at time zero.
Total cellular RNA of the gel samples was isolated using TRIzol (Invitrogen). 250 ng of the extracted purified RNA was reverse transcribed to cDNA by SuperScript II Reverse Transcriptase (Invitrogen) with the random primers. The obtained cDNA was subjected to real time quantitative polymerase chain reaction (RT-qPCR) amplification with the appropriate gene specific primers. RT-qPCR was performed to analyze the differential expression of CSC markers CD44, CD24, ABCG2, and SCA1 genes with SYBR green RealMasterMix (Eppendorf, Hamburg, Germany) using Bio-Rad iCycler PCR system (Bio-Rad, Hercules, Calif.). The expression level of GAPDH gene was used as an internal control. The primers for real time PCR were designed by Primer 3 software. The forward and reverse primer sequences, listed in the table below, were synthesized by Integrated DNA technologies (Coralville, Iowa). The relative gene expression levels were quantified by the 2^(−ΔΔCT) method. Briefly, ΔCT was calculated as ΔCT=CT^target gene−CT^GAPDH. ΔΔCT of the target gene was calculated as ΔΔCT=ΔCT^experimental group−ΔCT^reference group. The reference was the first time point (right after cells were encapsulated in the gel). The relative gene expression (fold-change compared to the reference time point) was calculated as 2^(−ΔΔCT).

[3] = test system: 4T1 cells; assay: Tumor growth in vivo of cell encapsulated gels implanted subcutaneously; parameters: species or system syngeneic Balb/C mice; details: 4T1 cells in dPEGDA gel, subcutaneous, 4 weeks after inoculation
Description: To test tumor formation ability of 4T1 cells in the hydrogel, the cell encapsulated gels were cultured in vitro in the stem cell medium for 9 days as described above. After tumorsphere formation, gel pieces containing 1×10^5 tumorsphere cells were implanted subcutaneously in syngeneic Balb/C mice (6 mice/group). Groups included 4T1 tumorsphere cells, grown on ultra-low attachment plates, and injected subcutaneously (control group), degradable version of the PEGDA gel (dPEGDA) without tumor cells (control group), 4T1 cells encapsulated in the dPEGDA and cultured in vitro for 9 days prior to implantation, and 4T1 cells encapsulated in CD44BP-conjugated dPEGDA gel and cultured in vitro for 9 days prior to implantation. When tumors became measurable, tumor size and growth rate were measured and calculated. Mice were euthanized when tumor volume reached above 1000 mm^3 or 4 weeks after inoculation.

[4] = 4T1 in PEGDA gel with peptide, 9 days
[5] = 4T1 in peptide-conjugated gel, 3 days
[6] = 4T1 in peptide-conjugated gel, 9 days

| Substance | percentage of CD44+/CD24− cells [1] | CD44 mRNA marker expression [2, 4] | expression of integrin αV ([2]; 4T1 in peptide-conjugated gel) | expression of integrin β3 ([2]; 4T1 in peptide-conjugated gel) | expression of E-Cadherin [2, 5] | expression of N-Cadherin [2, 5] | expression of E-Cadherin [2, 6] | EGFR mRNA marker expression ([2]; 9 days) | tumor formation in vivo [3] | tumor formation in vivo ([3]; listed as CD44BP) | ABCG2 mRNA marker expression [2, 4] | CD24 mRNA marker expression [2, 4] | SCA1 mRNA marker expression [2, 4] | CD44 mRNA marker expression ([2]; 4T1 in PEGDA gel with peptide, 9 days, listed as CD44BP) |
| --- | --- | --- | --- | --- | --- | --- | --- | --- | --- | --- | --- | --- | --- | --- |
| WQPPRARI [FHBP] | about 21% | significantly higher | reduced | reduced | decreased | increased | much higher than that in other groups | increased | – | – | – | – | – | – |
| RLVSYNGIIFFLK [conj CD44BP] (RLVSYNGIIFFLK-NH2; also: conjugated to PEGDA gel, site not given here) | 6.5% | decreased expressions | reduced | reduced | – | – | low expressions | decreased | did not form a visible tumor | Tumor growth was not observed | decreased expressions | increased expression | decreased expressions | decreased |
| GRGDS [IBP] | 5.4% | decreased | significantly increased | significantly increased | – | – | low expressions | decreased | – | – | – | – | – | – |
